Twelve compounds from publication PMC9414584, “Synthesis and Biological Evaluation of Indole-2-Carboxamides with Potent Apoptotic Antiproliferative Activity as EGFR/CDK2 Dual Inhibitors” (Pharmaceuticals, 2022) can be followed below.

As usually defined, the viability is the share of living cells, or the viability signal relative to a control. A lower viability goes with a greater loss of cells. The term IC50 denotes the concentration needed to halve the response being measured. For orientation: melting point means the temperature of the solid-liquid transition.

A short description of series [1]: Cell viability assay (MTT) on MCF-10A cells. The series is classed as cell-based. Particulars: human, MCF-10A mammary gland epithelial cells. As to the method:
The MCF-10A (human mammary gland epithelial) cell line was used in the cell viability experiment. Compounds 5a–k, 6a–c, and 7 were incubated with MCF-10A cells for 4 days at 50 µM concentration, and the viability of cells was determined using the 3-(4,5-dimethylthiazol-2-yl)-2,5-diphenyltetrazolium bromide (MTT) test.. All compounds had no cytotoxic effects, and the vitality of the cells was more than 83% for most of the compounds examined.
The MCF-10A (human mammary gland epithelial) cell line was used in the cell viability experiment. Compounds 5a–k, 6a–c, and 7 were incubated with MCF-10A cells for 4 days at 50 µM concentration, and the viability of cells was determined using the 3-(4,5-dimethylthiazol-2-yl)-2,5-diphenyltetrazolium bromide (MTT) test.

Series [2] deals with epithelial cancer cell line (A-549). Kind of series: Antiproliferative MTT assay, A-549. To be noted: Homo sapiens, A549; A-549, MTT; read-out: Antiproliferative Activity IC50 ± SEM A-549. Type of series: cell-based. From the text:
(§1) Using the MTT assay with doxorubicin as the reference drug, the antiproliferative activities of 5a–k, 6a–c, and 7 against four human cancer cell lines, including pancreas cancer cell line (Panc-1), breast cancer cell line (MCF-7), colon cancer cell line (HT-29), and epithelial cancer cell line (A-549) were investigated.
(In general: Tetrazolium dyes change colour on reduction, which living cells bring about.)

The subject of series [3] is breast cancer cell line (MCF-7). Briefly: Antiproliferative MTT assay, MCF-7. Type of series: cell-based. Particulars: Homo sapiens, MCF7; MCF-7, MTT; read-out: Antiproliferative Activity IC50 ± SEM MCF-7.
Source text: as §1

Series [4] concerns pancreas cancer cell line (Panc-1). Kind of series: Antiproliferative MTT assay, Panc-1. The series is classed as cell-based. Particulars: Homo sapiens; Panc-1, MTT; read-out: Antiproliferative Activity IC50 ± SEM Panc-1.
Source text: as §1

Series [5] deals with colon cancer cell line (HT-29). Briefly: Antiproliferative MTT assay, HT-29. Type of series: cell-based. To be noted: Homo sapiens; HT-29, MTT; read-out: Antiproliferative Activity IC50 ± SEM HT-29.
Source text: as §1

The subject of series [6] is four human cancer cell lines (Panc-1, MCF-7, HT-29, A-549). Briefly: Antiproliferative MTT assay, average of four cancer cell lines (mean GI50). Type of series: cell-based. To be noted: for IC50: Homo sapiens, average of A-549, MCF-7, Panc-1, HT-29, read-out: Antiproliferative Activity IC50 Average (GI50 against the four cell lines); for fold less potent than 5e (mean GI50): ratio of mean GI50 vs compound 5e.

Series [7] addresses EGFR (Homo sapiens, UniProt P00533). Briefly: EGFR-TK inhibitory assay. Type of series: biochemical. Particulars: read-out: EGFR Inhibition IC50 ± SEM.
The target of series [8] is CDK2 enzyme (Homo sapiens, UniProt P24941). Briefly: CDK2 inhibitory assay.

EGFR, sequence (P00533 25-1210): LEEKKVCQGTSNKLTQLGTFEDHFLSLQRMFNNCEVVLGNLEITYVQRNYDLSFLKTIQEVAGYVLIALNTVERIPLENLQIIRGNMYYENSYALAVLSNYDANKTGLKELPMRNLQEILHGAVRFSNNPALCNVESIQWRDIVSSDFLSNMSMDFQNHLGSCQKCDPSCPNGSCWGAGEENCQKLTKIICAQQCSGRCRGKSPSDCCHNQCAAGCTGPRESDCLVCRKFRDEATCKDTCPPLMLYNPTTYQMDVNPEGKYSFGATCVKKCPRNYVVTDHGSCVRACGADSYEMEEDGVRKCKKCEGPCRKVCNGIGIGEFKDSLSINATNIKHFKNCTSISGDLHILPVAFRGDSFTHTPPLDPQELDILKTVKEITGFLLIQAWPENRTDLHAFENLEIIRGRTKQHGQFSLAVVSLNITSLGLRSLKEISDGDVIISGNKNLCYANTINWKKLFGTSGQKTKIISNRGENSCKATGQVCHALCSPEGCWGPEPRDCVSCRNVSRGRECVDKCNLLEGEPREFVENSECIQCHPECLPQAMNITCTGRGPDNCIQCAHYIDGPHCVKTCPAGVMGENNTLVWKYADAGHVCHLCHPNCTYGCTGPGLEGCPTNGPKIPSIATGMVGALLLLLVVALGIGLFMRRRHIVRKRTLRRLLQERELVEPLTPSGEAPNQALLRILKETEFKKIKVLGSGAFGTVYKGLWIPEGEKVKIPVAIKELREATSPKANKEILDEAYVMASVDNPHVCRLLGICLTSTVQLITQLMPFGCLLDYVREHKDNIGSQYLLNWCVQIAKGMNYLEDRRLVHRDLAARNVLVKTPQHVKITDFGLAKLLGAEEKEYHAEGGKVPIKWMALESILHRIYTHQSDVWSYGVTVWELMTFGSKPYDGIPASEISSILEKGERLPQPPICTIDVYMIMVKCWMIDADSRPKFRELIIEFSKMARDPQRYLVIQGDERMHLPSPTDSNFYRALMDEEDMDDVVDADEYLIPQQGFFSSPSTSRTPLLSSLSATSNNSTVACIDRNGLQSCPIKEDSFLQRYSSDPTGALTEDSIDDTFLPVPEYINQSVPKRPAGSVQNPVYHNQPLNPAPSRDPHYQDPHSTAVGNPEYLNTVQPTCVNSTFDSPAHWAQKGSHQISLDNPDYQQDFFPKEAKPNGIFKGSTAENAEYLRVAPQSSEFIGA

The compound `Cc1c(C(=O)NCCc2ccccc2)[nH]c2ccc(Cl)cc12` [Compound 5a, 5-Chloro-3-methyl-N-phenethyl-1H-indole-2-carboxamide] came in with a melting point of 182 to 184 °C. In series [1], this compound had a viability at 4 days, 50 µM of 89%. The IC50 in series [2] stood at 3700 ± 300 nM. The concentration for half-maximal inhibition (IC50) in series [3] was determined as 3200 ± 300 nM. Also, the IC50 in series [4] was determined as 3900 ± 300 nM. In [5], the half-inhibitory concentration (IC50) was determined as 3900 ± 300 nM. In series [6], the IC50 turned out to be 3700 nM and the “fold less potent than 5e (mean GI50)” value is “roughly four-fold”.

As to `Cc1c(C(=O)NCCc2ccc(N(C)C)cc2)[nH]c2ccc(Cl)cc12` [Compound 5b, 5-Chloro-N-(4-(dimethylamino)phenethyl)-3-methyl-1H-indole-2-carboxamide], the melting point fell in the range of 202 to 204 °C. Further, in series [1], the viability at 4 days, 50 µM came out at 87%. Moreover, the IC50 in series [2] is 3200 ± 300 nM. Further, the IC50 in [3] is 2900 ± 300 nM. In [4], the IC50 was determined as 3500 ± 300 nM. Besides, in series [5], the half-maximal inhibitory concentration (IC50) worked out at 3600 ± 300 nM. Besides, in series [6], the half-maximal inhibitory concentration (IC50) was 3300 nM.

For `Cc1c(C(=O)NCCc2ccc(N3CCCCC3)cc2)[nH]c2ccc(Cl)cc12` [Compound 5c, 5-Chloro-3-methyl-N-(4-(piperidin-1-yl)phenethyl)-1H-indole-2-carboxamide], the melting point lay within 216 to 218 °C. Besides, the viability at 4 days, 50 µM in series [1] is 87%. Besides, the concentration for half-maximal inhibition (IC50) in series [2] came out at 1700 ± 200 nM. Besides, the IC50 in series [3] worked out at 1400 ± 200 nM. Moreover, the half-maximal inhibitory concentration (IC50) in [4] stood at 1800 ± 200 nM. Further, the half-maximal inhibitory concentration (IC50) in [5] amounted to 1800 ± 200 nM. Besides, in series [6], the 50% inhibitory concentration (IC50) turned out to be 1700 nM and the “fold less potent than 5e (mean GI50)” value is “at least 1.8 fold”. The “fold reduction of mean GI50 potency vs 5d” value in series [6] (ratio of mean GI50 vs compound 5d) is recorded as at least 1.6 fold.

`Cc1c(C(=O)NCCc2ccccc2)[nH]c2cc(Cl)ccc12` [Compound 5f, 6-Chloro-3-methyl-N-phenethyl-1H-indole-2-carboxamide] gave a melting point of 170 to 172 °C. In series [1], this compound registered a viability at 4 days, 50 µM of 90%. Besides, in series [2], the 50% inhibitory concentration (IC50) turned out to be 1900 ± 200 nM. In addition, the IC50 in [3] was 1700 ± 200 nM. In addition, the IC50 in [4] was 2100 ± 200 nM. Also, the IC50 in series [5] is 2100 ± 200 nM. Further, the IC50 in series [6] was found to be 1950 nM. Further, the “times more potent than 5a” value in [6] (vs compound 5a) is given as 1.9 times.

For the compound `Cc1c(C(=O)NCCc2ccc(N3CCCCC3)cc2)[nH]c2cc(Cl)ccc12` [Compound 5g, 6-Chloro-3-methyl-N-(4-(piperidin-1-yl)phenethyl)-1H-indole-2-carboxamide], the melting point was 218 to 220 °C. The same compound yielded a viability at 4 days, 50 µM in series [1] of 89%. The half-maximal inhibitory concentration (IC50) in series [2] turned out to be 4900 ± 500 nM. The IC50 in [3] worked out at 4800 ± 500 nM. Moreover, in series [4], the 50% inhibitory concentration (IC50) came to 5200 ± 500 nM. The IC50 in series [5] came to 5100 ± 500 nM. Besides, in series [6], the IC50 came to 5000 nM. The “times lower antiproliferative efficacy than 5c” value in [6] (vs compound 5c) amounted to 3 times.

Consider `Cc1c(C(=O)NCCc2ccc(N3CCOCC3)cc2)[nH]c2c(Cl)cc(Cl)cc12` [Compound 5i, 5,7-Dichloro-3-methyl-N-(4-morpholinophenethyl)-1H-indole-2-carboxamide], for which the melting point was in the range of 185 to 187 °C. This compound came in with a viability at 4 days, 50 µM in [1] of 90%. In addition, in [2], the IC50 was 1550 ± 200 nM. The IC50 in [3] is 1300 ± 100 nM. Besides, in series [4], the IC50 was 1600 ± 200 nM. Also, the 50% inhibitory concentration (IC50) in series [5] amounted to 1650 ± 200 nM. In addition, in [6], the half-maximal inhibitory concentration (IC50) was determined as 1500 nM. In addition, in [7], the IC50 came out at 137 ± 12 nM. In series [8], this compound came in with an IC50 of 27 ± 3 nM.

As to `Cc1c(C(=O)NCCc2ccccc2)[nH]c2c(F)cc(F)cc12` [Compound 5j, 5,7-Difluoro-3-methyl-N-phenethyl-1H-indole-2-carboxamide], the melting point is 198 to 200 °C. Also, the viability at 4 days, 50 µM in [1] amounted to 83%. In addition, in series [2], the IC50 was 1200 ± 100 nM. Besides, the IC50 in series [3] was 1000 ± 100 nM. In series [4], the IC50 was determined as 1300 ± 100 nM. Besides, in series [5], the IC50 was determined as 1300 ± 100 nM. The IC50 in series [6] was 1200 nM. In series [7], the half-inhibitory concentration (IC50) came out at 98 ± 8 nM. For the same compound, in [8], the IC50 worked out at 34 ± 3 nM.

As for `Cc1c(C(=O)NCCc2ccc(N3CCCCC3)cc2)[nH]c2c(F)cc(F)cc12` [Compound 5k, 5,7-Difluoro-3-methyl-N-(4-(piperidin-1-yl)phenethyl)-1H-indole-2-carboxamide], the melting point fell in the range of 192 to 194 °C. For the same compound, the viability at 4 days, 50 µM in series [1] is 87%. Moreover, in series [2], the IC50 stood at 1400 ± 200 nM. In addition, in series [3], the IC50 turned out to be 1200 ± 100 nM. Further, in series [4], the IC50 was 1500 ± 200 nM. Further, the half-maximal inhibitory concentration (IC50) in [5] is 1500 ± 200 nM. Besides, the concentration for half-maximal inhibition (IC50) in series [6] came to 1400 nM. In addition, the IC50 in [7] stood at 129 ± 11 nM. Moreover, the IC50 in series [8] is 19 nM.

In the case of `Cc1c(C(=O)N2CCN(c3ccccc3)CC2)[nH]c2ccc(Cl)cc12` [Compound 6a, (5-Chloro-3-methyl-1H-indol-2-yl)(4-phenylpiperazin-1-yl)methanone], the melting point lay in the range of 165 to 167 °C. In series [1], this compound displayed a viability at 4 days, 50 µM of 90%. Further, the 50% inhibitory concentration (IC50) in series [2] came to 2900 ± 300 nM. Also, in series [3], the concentration for half-maximal inhibition (IC50) was 2600 ± 200 nM. The IC50 in [4] was 2800 ± 200 nM. Besides, the IC50 in [5] was 2900 ± 200 nM. Moreover, the IC50 in series [6] came to 2800 nM.

`Cc1c(C(=O)N2CCN(c3ccccc3)CC2)[nH]c2cc(Cl)ccc12` [Compound 6b, (6-Chloro-3-methyl-1H-indol-2-yl)(4-phenylpiperazin-1-yl)methanone]: the melting point fell in the range of 180 to 182 °C. In addition, in series [1], the viability at 4 days, 50 µM is 91%. In addition, the IC50 in series [2] was 2500 ± 200 nM. Besides, the concentration for half-maximal inhibition (IC50) in series [3] amounted to 2300 ± 200 nM. Further, in [4], the IC50 was 2650 ± 200 nM. In series [5], the IC50 worked out at 2800 ± 200 nM. In series [6], the concentration for half-maximal inhibition (IC50) is 2600 nM.

`Cc1c(C(=O)N2CCN(c3ccccc3)CC2)[nH]c2c(F)cc(F)cc12` [Compound 6c, (5,7-Difluoro-3-methyl-1H-indol-2-yl)(4-phenylpiperazin-1-yl)methanone]: the melting point is 171 to 173 °C. For the same compound, the viability at 4 days, 50 µM in [1] was 89%. Further, in series [2], the half-maximal inhibitory concentration (IC50) turned out to be 2200 ± 200 nM. Also, the IC50 in series [3] came to 2100 ± 200 nM. The IC50 in series [4] turned out to be 2400 ± 200 nM. Besides, the IC50 in [5] came out at 2500 ± 200 nM. Also, the IC50 in [6] was found to be 2300 nM.

The compound `Cc1c(C(=O)NCc2ccccc2)[nH]c2ccc(Cl)cc12` [Compound 7, N-Benzyl-5-chloro-3-methyl-1H-indole-2-carboxamide] registered a melting point of 203 to 205 °C. This compound returned a viability at 4 days, 50 µM in [1] of 91%. In addition, the IC50 in series [2] is 4100 ± 400 nM. In series [3], the IC50 amounted to 4000 ± 400 nM. Moreover, the 50% inhibitory concentration (IC50) in [4] was 4400 ± 400 nM. For the same compound, the 50% inhibitory concentration (IC50) in series [5] came out at 4600 ± 400 nM. Also, the IC50 in [6] turned out to be 4300 nM.
